Experimental data as given in patent EP0540859B1, “Anthracycline prodrugs” (Bristol-Myers Squibb Company, priority 1987, dated 1989).
Like-named read-outs stand apart in the source and are kept apart here.

Tests used:
penicillin V amidase = experiment: Hydrolysis of APO to adriamycin by PVA or L6-PVA conjugate (HPLC); format: biochemical, Fusarium oxysporum
Description: The ability of the antibody-PVA conjugate, L6-PVA, to convert the novel prodrug, APO, to adriamycin was measured as follows: either a) PVA alone (final concentration:50 µg/ml), b) 100 µg/ml of the L6-PVA conjugate (final PVA concentration: 25 µg/ml) or c) 10 µg/ml of L6-PVA (final PVA concentration: 2.5 µg/ml) were added to a solution of APO (0.1 mM) in PBS. Each reaction was monitored by HPLC using a Phenominex C-18 column (3 µm, 4.5 x 100 mm) and a gradient elution of 20-60% tetrahydrofuran in water with 0.1% H3PO4 (1.0 ml/min, monitored at 495 nm). Under these conditions, the adriamycin eluted at 8.9 minutes and the APO eluted at 12.2 minutes.

H2981 tumor cells [1] = experiment: 3H-thymidine uptake assay on H2981 cells, PVA conjugates with APO; format: cell-based; conditions: Homo sapiens; H2981 cells untreated with any conjugate
Description: The in vitro cytotoxic effect of the antibody-PVA/ adriamycin prodrug combination of the invention toward H2981 tumor cells was measured using the ^3H-thymidine uptake assay described in Examples 1 and 2 above. Briefly, the H2981 tumor cells were plated into 96-well microtiter plates in IMDM (10,000 cells/well) and were allowed to attached for 18 h at 37°C. The antibody-PVA conjugates, L6-PVA or 1F5-PVA, were then added at a concentration of 10 µg/ml of antibody and the plates were incubated for 30 min at 4°C. The wells were then washed four times with IMDM and APO was added at varying concentrations in IMDM. After two h, the wells were again washed, IMDM was added and the cells were left for 18 h at 37°C. At that point, ^3H-thymidine was added (1 µCi per well) and after 6 h, the plates were frozen at -70°C to detach the cells. After thawing, the cells were harvested onto glass fiber filters. The incorporation of ^3H-thymidine was measured in a Beckman 3801 scintillation counter and compared to cells treated with APO or adriamycin (ADM) alone.

[2] = Stability of aqueous solutions of etoposide prodrugs; format: physicochemical
Description: For example, either AP alone or the antibody-enzyme conjugate, L6-AP, produced as described above (final AP concentration 5 µg/ml) were added to a solution of etoposide-4'-phosphate (0.1 mM) in Tris buffer (100 mM) containing MgCl2 (1 mM) and ZnCl2 (0.1 mM) at pH 7.0. The reaction was monitored by HPLC using an IBM C-18 column (3 µ, 4.5 x 100 mm) and 50% aqueous methanol as eluant (0.5 ml/min, monitored at 254 nm). […] Aqueous solutions of etoposide phosphate or etoposide thiophosphate were stable for at least 8 hours at room temperature and for several days at 4°C.

H3347 tumor cells [3] = experiment: Clonogenic cytotoxicity (colony inhibition) assay; format: cell-based; conditions: Homo sapiens, 15 hours drug exposure, colonies counted 7-10 days later
Description: The clonogenic cytotoxicity assay we used was the colony inhibition assay described by I. Hellstrom et al., "Colony Inhibition And Cytotoxicity Assays," in In Vitro Methods In Cell-Mediated Immunity, Bloom and Glade (ed.s), pp.- 409-14 (1971). The cells used to detect cytotoxicity were the H3347 tumor cells described above. Both the L6-AP and 96.5-AP conjugates were tested for their ability to convert prodrug into the free drug.
Briefly, the H3347 cells (10^6/ml) were suspended in IMDM growth media (containing 10 µg/ml of each immunoconjugate based on antibody concentration) and incubated for 30 min at 37°C. The cells were washed twice, resuspended in IMDM, and the drug or prodrug in medium was added. Incubation at 37°C was continued for 15 hours. After washing twice, the cells were plated out and the number of colonies (>8 cells/colony) were counted 7-10 days later.

H3347 tumor cells [4] = experiment: 3H-thymidine uptake assay on H3347 cells; format: cell-based, human
H3347 tumors = experiment: In vivo antitumor effect, conjugate/etoposide phosphate, s.c. H3347 tumors; design: species or system nude mice; conditions: for antitumor effect on tumor growth: Figure 11, conjugates i.p. 18-24 h prior to EP; for tolerability in the animals: nude mice, maximum tolerated doses; for RESPONSE complete / RESPONSE partial / RESPONSE progression / RESPONSE stable: number of 16 tumors in each group, 23 days after tumor implant
Description: First, Balb/C nu/nu female mice (4-6 wk old) (obtained from Life Sciences, St. Petersburg, Florida) were injected with 10^7 H3347 tumor cells subcutaneously (s.c.) in the left and right hind flanks. The tumor cells were obtained from in vitro cultures that had been suspended by treatment for 2 min with trypsin (0.5 g/l) and EDTA (0.2 g/l). The cells were washed twice with IMDM and incubated for 1 h at 37°C in IMDM with 10% fetal calf serum. The cells were washed, suspended in PBS, and kept at 4°C prior to injection. Both the localization and therapy studies described herein were initiated when the tumors reached an average size of 225 mm^3.
Therapy experiments were performed on nude mice that had s.c. tumors approximately 225 mm^3 in volume. The conjugates, L6-AP and 1F5-AP, were administered (i.p.) 18-24 h prior to treatment with EP. Tumor growth was compared to that in untreated mice and in mice treated with maximum tolerated doses of etoposide or EP alone.
More particularly, a group of 8 nude mice with bilateral H3347 tumors was treated with either etoposide (0.2 ml containing 1.2 mg etoposide in 2:3 DMSO:H2O) or EP (0.2 ml containing 2 mg EP in H2O) alone or with L6-AP (0.1 ml containing 300 µg antibody in PBS) or 1F5-AP (0.1 ml containing 300 µg antibody in PBS) followed by EP treatment Each experiment contained a control group of mice that was untreated. Tumor volumes were estimated at various days post tumor implant, using the formula: ([(perpendicular width)^2 /2)] X longest length [formula]

H2981 tumor cells [5] = system: H2981 tumor cells
Alkaline phosphatase = experiment: Hydrolysis of etoposide phosphate prodrugs by AP or L6-AP conjugate (HPLC); conditions: for hydrolysis by alkaline phosphatase, relative rate: Figure 5
[6] = system: calf intestinal or human placental AP; experiment: Reactivity of MOP with AP (HPLC); format: biochemical; conditions: MOP 1 mM, AP 1 µg/ml, 100 mM Tris pH 7.2, room temperature
Description: The MOP prodrug was then tested for its reactivity with AP. […] The course of the reaction was monitored by HPLC using a C-18 column (4.6 x 150 mm) and the following conditions: detection at 280 nm; 30-95% methanol in acetate buffer (100 mM, pH 5.2) over 8 min, re-equilibration after 15 min; 0.8 ml/min flow rate. Under these conditions, MMC eluted at 7.0 min, MOH eluted at 8.5 min, and MOP eluted 4.0 min. […] HPLC served to confirm that the corresponding alcohol, MOH, was formed. Under the reaction conditions used, the half life for hydrolysis of MOP was about 10 min and the reaction went to completion within 40 min.

[7] = Relative toxicities of MOH and MOP in mice; design: species or system Balb C nu/nu mice; conditions: mouse, in vivo, ip; for LD50: two equal doses spaced 4 days apart; for MTD: given in 4 equal doses over a 25 day period, read-out: total amounts well tolerated
Description: Prior to investigating the in vivo antitumor activity of MOP in combination with the L6-AP conjugate the relative toxicities of the prodrug and its released active derivative, MOH, were determined in Balb C nu/nu mice. […] Total amounts of up to 40 mg/kg of MOH and 100 mg/kg of MOP were well tolerated if given in 4 equal doses over a 25 day period.

H2981 tumor = experiment: In vivo antitumor effect, conjugate/mitomycin prodrug and MOP/EP combinations, s.c. H2981 tumor; design: species or system nude Balb C nu/nu female mice; conditions: for antitumor activity in vivo: Figures 18 and 19, conjugates 18-24 h prior to prodrug; for time required to reach an average tumor volume of 750 mm^3: H2981 tumor, maximum tolerated doses
Description: Therapy studies were then performed on nude Balb C nu/nu female mice (6 mice per treatment group) (4-6 wk old) obtained from Life Sciences (St. Petersburg, Fla.) that had been implanted (s.c., right hind flank) with a H2981 tumor obtained from in vivo sourcing. The experiments were run when the tumors reached approximately 100 mm^3 in volume. The L6-AP and 1F5-AP conjugates (0.1 ml containing 250 µg antibody in PBS) were each administered (i.p.) 18-24 h prior to treatment with MOP (0.2 ml containing 0.6 mg MOP in H2O). Tumor growth was compared to that observed in untreated mice and in mice treated with maximum tolerated doses of MOP (0.2 ml containing 0.6 mg MOP in H2O) or MOH (0.2 ml containing 0.2 mg MOH in H2O) alone.
The prodrugs, EP and MOP, were prepared as described in Examples 1 and 2, respectively. Preparation of the L6-AP and 1F5-AP immunoconjugates is described in Example 1. The in vivo studies on nude mice were carried out as described in Examples 1 and 2 above. Thus, nude mice that had been implanted with a H2981 tumor were pre-exposed to the L6-AP or 1F5-AP conjugate 18-24 h prior to treatment with a combination of MOP/EP (0.2 ml containing 1 mg EP and 0.3 mg MOP in H2O). Tumor growth was compared to that observed in untreated mice and in mice treated with the MOP/EP combination alone.

H2981 tumor cells [8] = experiment: cells; conditions: Homo sapiens
[9] = by day 63, mitomycin derivatives (Table 3)

COc1cccc2c1C(=O)c1c(O)c3c(c(O)c1C2=O)C[C@@](O)(C(=O)CO)C[C@@H]3O[C@H]1C[C@H](NC(=O)COc2ccc(O)cc2)[C@H](O)[C@H](C)O1 [APO, N-(p-hydroxyphenoxyacetyl)adriamycin]
time to effect this level of hydrolysis (at least 80%) (penicillin V amidase; L6-PVA conjugate at 10 µg/ml (2.5 µg/ml of PVA)): 120 min | hydrolysis of APO to adriamycin (penicillin V amidase; within 40 minutes, PVA alone 50 µg/ml or L6-PVA conjugate 100 µg/ml): at least 80% | IC50 (H2981 tumor cells [1]): 2 µM

COc1cc(C2c3cc4c(cc3C(OC3OC5COC(C)OC5C(O)C3O)C3COC(=O)C23)OCO4)cc(OC)c1OP(=O)(O)O (stereo not drawn) [EP, 4'-disodium phosphate ester of etoposide]
stability of aqueous solutions ([2]; 4°C): several days | stability of aqueous solutions ([2]; room temperature): at least 8 hours | IC50 (H3347 tumor cells [3]): 5.8 µM | inhibition at 100 µM (H3347 tumor cells [4]; Homo sapiens, at 100 µM): 35% | antitumor effect on tumor growth (H3347 tumors): greater antitumor effect than seen with etoposide itself | tolerability in the animals (H3347 tumors): less toxic to the animals | RESPONSE complete (H3347 tumors): 0 | RESPONSE partial (H3347 tumors): 0 | RESPONSE progression (H3347 tumors): 6 | RESPONSE stable (H3347 tumors): 10 | kill (H2981 tumor cells [5]; human, h2981 cells, 30 µM): 20% | hydrolysis by alkaline phosphatase, relative rate (Alkaline phosphatase): hydrolyzed by the enzyme more rapidly than the etoposide thiophosphate prodrug | phosphate hydrolysis in the absence of enzyme (Alkaline phosphatase; Tris buffer pH 7.0, no enzyme): no phosphate hydrolysis occurred | hydrolysis of the etoposide-4'-phosphate to etoposide (Alkaline phosphatase; within 5 min of the start, AP free or as L6-AP conjugate, final AP concentration 5 µg/ml, prodrug 0.1 mM, pH 7.0): at least 85 X

CO[C@@]12[C@H](COC(N)=O)C3=C(C(=O)C(C)=C(NCCOP(=O)(O)O)C3=O)N1C[C@@H]1N[C@@H]12 [MOP, 7-(2'-aminoethyl phosphate)mitomycin]
time for the reaction to go to completion [6]: ≤ 40 min | LD50 [7]: 90 mg/kg | MTD [7]: ≤ 100 mg/kg | antitumor activity in vivo (H2981 tumor): significant antitumor activities in vivo | time required to reach an average tumor volume of 750 mm^3 (H2981 tumor): 63 days | TUMOR RESPONSES PROGRESSION (H2981 tumor; [9]): 4/5 | TUMOR RESPONSES STABLE (H2981 tumor; [9]): 1/5 | cell kill (H2981 tumor cells [5]; at 10 µM, H2981 cells): 5%

CO[C@@]12[C@H](COC(N)=O)C3=C(C(=O)C(C)=C(NCCO)C3=O)N1C[C@@H]1N[C@@H]12 [MOH, 7-[(2-hydroxyethyl)amino]-9a-methoxymitosane, reference compound]
LD50 [7]: 45 mg/kg | MTD [7]: ≥ 40 mg/kg | antitumor activity in vivo (H2981 tumor): significant antitumor activities in vivo | time required to reach an average tumor volume of 750 mm^3 (H2981 tumor): 45 days | TUMOR RESPONSES PROGRESSION (H2981 tumor; [9]): 6/6 | IC50 (H2981 tumor cells [8]): ~1 µM

COc1cc(C2c3cc4c(cc3C(OC3OC5COC(C)OC5C(O)C3O)C3COC(=O)C23)OCO4)cc(OC)c1OP(O)(O)=S (stereo not drawn) [etoposide thiophosphate, 4'-disodium thiophosphate ester of etoposide]
stability of aqueous solutions ([2]; 4°C): several days | stability of aqueous solutions ([2]; room temperature): at least 8 hours | hydrolysis by alkaline phosphatase, relative rate (Alkaline phosphatase): increased stability towards hydrolysis

CO[C@@]12[C@H](COC(N)=O)C3=C(C(=O)C(C)=C(N)C3=O)N1C[C@@H]1N[C@@H]12 [MMC, mitomycin C, reference compound]
IC50 (H2981 tumor cells [5]): ~1 µM

COc1cc([C@@H]2c3cc4c(cc3[C@@H](O[C@@H]3O[C@@H]5CO[C@@H](C)O[C@H]5[C@H](O)[C@H]3O)[C@H]3COC(=O)[C@H]23)OCO4)cc(OC)c1O [etoposide, reference compound]
IC50 (H3347 tumor cells [3]): 0.2 µM | toxicity relative to EP (H3347 tumor cells [4]): more than 100 fold | IC50 (H3347 tumor cells [4]; Homo sapiens, 6 h drug exposure): 1 µM | antitumor effect on tumor growth (H3347 tumors): very little effect on tumor growth | tolerability in the animals (H3347 tumors): higher doses were not well tolerated | RESPONSE complete (H3347 tumors): 0 | RESPONSE partial (H3347 tumors): 0 | RESPONSE progression (H3347 tumors): 12 | RESPONSE stable (H3347 tumors): 4 | IC50 (H2981 tumor cells [8]): 2 µM
